Measured values as given in patent US20210283083A1, “USE OF TYROSINE HYDROXYLASE INHIBITORS FOR THE TREATMENT OF AORTIC ANEURYSM” (CONSEJO SUPERIOR DE INVESTIGACIONES CIENTÍFICAS (CSIC), priority 2018, published 2021).

How the values were obtained:
Assay type in all cases: in vivo
[1] = Systolic blood pressure in TgNR4A3^CML mice infused with Ang II; conditions: for systolic pressure: Ang II + AMPT
Experimental: (§1) The studies were developed in male ApoE^−/− mice who were acclimatised to the facility for 1 week before the study. Animals were infused with Ang II (1000 ng/kg/min) by means of osmotic minipumps (model 1004, Alzet) implemented subcutaneously in the interscapular space of the mice after anesthesia with isoflurane. The procedure lasts approximately 15 minutes per animal. Immediately after surgery, antibiotics (penicillin, 22,000 u/Kg, i.m.) and analgesics (buprenorphine 0.05 mg/Kg, i.m.) were administered for preventing infections and limiting animal discomfort, which were kept on a heating pad until they woke up after the intervention and were carefully monitored during the post-surgery period. A group of the mice infused with Ang II received AMPT treatment (100 mg/kg, via i.p) administered twice daily from the day before implementing the Ang II pump and throughout the study (28 days). The control group consisted of ApoE^−/− mice infused with saline. Blood pressure was assessed weekly (at 0, 7, 14, 21 and 28 days) by means of the tail plethysmography method. The diameter of the aorta was also assessed weekly by means of abdominal ultrasound using ultrasound equipment (Vevo2100 Imaging systems, Visualsonics) with a 30 MHz transducer. To do this, the mice were anesthetised by means of 1.5% isofluorane inhalation and secured in a supine position on a heating platform. After shaving the precordial region, the transducer was applied to the abdominal wall to take measurements of the abdominal aorta. Those abdominal aortas with external diameters greater than or equal to 1.5 mm were considered aneurysmal. All measurements were carried out from the images captured by using the analysis software. After 4 weeks, the animals were euthanised by means of terminal intraperitoneal anesthesia with a mixture of medetomidine (1 mg/kg) and ketamine (75 mg/kg) in saline (final volume of 200 μl), aortas were immediately harvested, they were examined to determine the presence of aneurysms and were immediately frozen in nitrogen or fixed in paraformaldehyde for macroscopic characterisation or to be embedded in paraffin and processed for histochemical studies.
The studies were developed in a similar way to that described in Example 3. In this case, the effect of the infusion of Ang II on the diameter of the aorta in control animals (C57BL/6J; WT) and in transgenic mice for NR4A3 (TgNR4A3^CML) was analysed. The transgenic mice infused with Ang II were divided into two groups, one of which received AMPT treatment from the day before implementation of the Ang II pumps, as described in Example 3, while the second group only received the vehicle in which this drug was administered (saline). The control groups consisted of transgenic mice and non-transgenic controls infused with saline.

[2] = test system: TgNR4A3^CML mice infused with angiotensin II; experiment: Ang II-induced aortic aneurysm in TgNR4A3^CML mice (ultrasonography, histology)
Experimental: (A) Diameter of the aorta of non-transgenic mice (controls; C57BL/6J; WT) and transgenic mice for human NR4A3 (TgNR4A3^CML) infused with saline or angiotensin II (Ang II; 1000 ng/kg/min for 28 days). A group of TgNR4A3^CML mice infused with Ang II was treated with AMPT (100 mg/kg, via IP, administered twice a day from the day before implementing the Ang II pump). The diameter of the aorta was determined by means of ultrasonography. Values are expressed as mean±SEM (at least n=7). P<0.05: * vs. time 0 of the same experimental group; # vs. the same animal infused with saline at the same time; $ vs. TgNR4A3CML infused with Ang II and treated with AMPT. (B) Representative images obtained by means of ultrasonography of the cross-sectional view of the aorta of each of the experimental groups indicated in (A) after 4 weeks of treatment. (C) Representative photographs of the aortas of the mice in the 5 groups at the end of the study.
(§2) FIG. 6. […] Non-transgenic (controls; C57BL/6J; WT) and transgenic mice for human NR4A3 (TgNR4A3^CML) were infused with saline or angiotensin II (Ang II; 1000 ng/kg/min for 28 days). A group of transgenic animals infused with Ang II were treated or not with AMPT (100 mg/kg, via IP, administered twice a day from the day before implementing the Ang II pump). (A and B) Representative images of the histological analysis using Masson's trichrome (A) and orcein (B) staining in sections of the abdominal aorta of the indicated study groups. Arrows indicate elastic fibre ruptures. (C) Representative staining for MAC3 (macrophage marker) in sections of the abdominal aorta of each one of the experimental groups. Arrows indicate positive regions for MAC3. Bar: 100 microns.
as §1
The studies were developed in a similar way to that described in Example 3. […]

[3] = test system: ApoE^−/− mice infused with angiotensin II; experiment: Ang II-induced aortic aneurysm in ApoE^−/− mice (ultrasonography, histology)
Experimental: FIG. 3. […] (A) Graph which represents the weekly evolution of the aortic diameter of ApoE^−/− mice infused with saline or angiotensin II (Ang II; 1000 ng/kg/min for 28 days) analysed by means of ultrasonography. Animals infused with Ang II were treated or not with AMPT (100 mg/kg via IP, administered twice a day from the day before implementing the Ang II pump). The values correspond to the mean±SEM (saline, n=9; Ang II, n=14; Ang II+AMPT, n=19). P<0.05: * vs. time 0 of the same experimental group; # vs. animals infused with saline at the same time; $ vs. animals infused with Ang II (not treated with AMPT) at the same time. (B) Representative images obtained by means of ultrasonography of the cross-sectional view of the aorta of each of the experimental groups indicated in (A) after 4 weeks of treatment. (C) Representative photographs of the aortas of the mice in the 3 study groups at the end of the study.
as §2, with “4.” for “6.”, “ApoE^−/−” for “Non-transgenic (controls; C57BL/6J; WT) and transgenic”, “mice” for “mice for human NR4A3 (TgNR4A3^CML)”, “Animals” for “A group of transgenic animals”
as §1

[4] = Systolic blood pressure by tail plethysmography in ApoE^−/− mice infused with Ang II; conditions: for systolic pressure: Ang II 1000 ng/kg/min + AMPT 100 mg/kg i.p. twice daily
Experimental: as §1

[5] = TgNR4A3^CML mice, Ang II, AMPT treatment
[6] = ApoE^−/− mice, Ang II, AMPT 100 mg/kg i.p. twice daily, 28 days

Compound CC(N)(Cc1ccc(O)cc1)C(=O)O (stereo not drawn) [AMPT, alpha-methyl-p-tyrosine] has a systolic pressure ([1]; day 0, mean ± SEM) of 100.19 mm Hg, a systolic pressure ([1]; day 7, mean ± SEM) of 111.79 mm Hg and a systolic pressure ([1]; day 14, mean ± SEM) of 129.03 mm Hg. The systolic pressure ([1]; day 21, mean ± SEM) was 146.44 mm Hg, the systolic pressure ([1]; day 28, mean ± SEM) was 158.59 mm Hg and the “effect of AMPT treatment on Ang II-increased blood pressure” value ([1]; Ang II infusion, AMPT 100 mg/kg i.p. twice daily) was “without significant differences”. The “development of aortic aneurysm” value ([2]; TgNR4A3^CML mice infused with Ang II 1000 ng/kg/min for 28 days, AMPT 100 mg/kg IP twice a day) was “inhibits the development of aortic aneurysm”, the “Ang II-induced increase in aortic diameter (ultrasonography)” value ([2]; TgNR4A3^CML mice, AMPT 100 mg/kg i.p. twice daily, after 21 and 28 days, values similar to WT mice infused with Ang II) was “significantly prevented this effect” and the “structural alterations and inflammatory infiltrate in the aorta” value ([2]; TgNR4A3^CML mice, Ang II 1000 ng/kg/min for 28 days, AMPT 100 mg/kg IP twice a day) was “limits structural alterations and inflammatory infiltrate”. For the same compound, the “destructuring and rupture of the elastic laminae (orcein staining)” value [2, 5] was “limited the destructuring and rupture of the elastic laminae”, the “vascular inflammatory infiltrate (MAC3 immunohistochemistry)” value [2, 5] was “reduced the important vascular inflammatory infiltrate” and the “vascular remodelling and collagen deposition (Masson's trichrome)” value [2, 5] was “attenuated the exacerbated vascular remodelling and collagen deposition”. For the same compound, the “development of aortic aneurysm” value ([3]; ApoE^−/− mice infused with Ang II 1000 ng/kg/min for 28 days, AMPT 100 mg/kg IP twice a day) was “inhibits the development of aortic aneurysm”, the “Ang II-induced increase in aortic diameter (ultrasonography)” value ([3]; ApoE^−/− mice, AMPT 100 mg/kg i.p. twice daily, significant after 14 days, accentuated until 28 days) was “reduced the increase in aortic diameter to values similar to those of control animals” and the “structural alterations and inflammatory infiltrate in the aorta” value ([3]; ApoE^−/− mice, Ang II 1000 ng/kg/min for 28 days, AMPT 100 mg/kg IP twice a day) was “limits structural alterations and inflammatory infiltrate”. The “disruption and rupture of elastic fibers (orcein staining)” value [3, 6] was “limited the disruption and rupture of elastic fibers”, the “macrophage (MAC3-positive cells) infiltrate in the vascular wall” value [3, 6] was “prevented the significant macrophage (MAC3-positive cells) infiltrate” and the “vascular remodelling / collagen deposition (Masson's trichrome)” value [3, 6] was “attenuated”. The systolic pressure ([4]; day 0, mean ± SEM) was 100.55 mm Hg, the systolic pressure ([4]; day 7, mean ± SEM) was 133.99 mm Hg and the systolic pressure ([4]; day 14, mean ± SEM) was 136.36 mm Hg. The systolic pressure ([4]; day 21, mean ± SEM) was 143.34 mm Hg, the systolic pressure ([4]; day 28, mean ± SEM) was 154.46 mm Hg and the “effect of AMPT treatment on Ang II-increased blood pressure” value ([4]; Ang II infusion, AMPT 100 mg/kg i.p. twice daily, 28 days) was “not significantly altered”.
